Assay results: patent publication US20120095032A1, “METHODS FOR TREATING LEUKEMIA AND MYELODYSPLASTIC SYNDROME, AND METHODS FOR IDENTIFYING AGENTS FOR TREATING SAME” (Sanford-Burnham Medical Research Institute, priority 2007, published 2012)

How the values were obtained:
[1] = molecular target: T1, HePTP (Homo sapiens, UniProt P35236); assay: HePTP dose-response confirmation screening; format: biochemical; conditions: for IC50: 10 concentrations, 2-fold serial dilution, pNPP substrate; for n / nH (Hill coefficient): Hill coefficient of the dose-response curve
T1 sequence (P35236 1-360): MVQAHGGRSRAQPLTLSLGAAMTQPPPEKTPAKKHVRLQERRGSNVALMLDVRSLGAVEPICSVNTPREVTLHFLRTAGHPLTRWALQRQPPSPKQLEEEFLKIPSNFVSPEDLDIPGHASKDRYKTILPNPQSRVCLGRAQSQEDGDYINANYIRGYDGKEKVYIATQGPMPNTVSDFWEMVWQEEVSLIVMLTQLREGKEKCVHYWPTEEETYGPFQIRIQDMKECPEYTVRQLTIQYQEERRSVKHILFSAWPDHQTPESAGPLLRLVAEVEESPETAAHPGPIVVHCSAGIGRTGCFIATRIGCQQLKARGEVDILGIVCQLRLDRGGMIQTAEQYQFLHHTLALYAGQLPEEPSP
From the text: (§1) The following assay can be conducted manually or can be carried out by a robotic station.
(§2) Compounds are then serially diluted in 100% DMSO, and then diluted with water to 10% final DMSO concentration.
(§3) The primary screening actives can then proceed to the dose-response confirmation stage.
* n represents the Hill coefficient. This coefficient is derived from the Hill equation which has the formula: […]
wherein θ is the fraction of ligand binding sites filled, L is the inhibitor concentration, Ka is the inhibitor concentration producing half occupation of the ligand binding sites, and n is the Hill coefficient.

[2] = molecular target: T1, HePTP; assay: HePTP HTS primary screen (colorimetric pNPP / Biomol Green); format: biochemical; conditions: 20 μM compound; for inhibition at 20 µM: read-out: % Inhib. at 20 μM
From the text: as §1
For this assay, HePTP catalyzes the following reaction:
wherein p-nitrophenyl phosphate serves as a substrate and is cleaved to form p-nitrophenol and phosphate. The liberated phosphate complexes with the Biomol Green™ reagent to provide a quantitative colorimetric value for the amount of substrate cleaved.
as §2, §3

| Structure (SMILES) | IC50 [1] | n / nH (Hill coefficient) [1] | inhibition at 20 µM [2] | % Inhib. at 20 μM [2] |
| --- | --- | --- | --- | --- |
| C/C(N)=C(\C#N)C(=O)CSc1nnc(Nc2c(C)cccc2C)s1 [(Z)-3-Amino-2-[2-[[5-[(2,6-dimethylphenyl)amino]-1,3,4-thiadiazol-2-yl]sulfanyl]acetyl]but-2-enenitrile] | 30200 nM | 2.66 | 77.9% |  |
| CCOC(=O)C(C)Sc1nc2c(c(=O)[nH]c(=O)n2C)n1C/C=C(/C)Cl (centres unmarked) [Ethyl 2-[7-[(Z)-3-Chlorobut-2-enyl]-3-methyl-2,6-dioxo-purin-8-yl]sulfanylpropanoate] | 8330 nM | 1.44 | 55.4% |  |
| COc1ccc(N2Cc3cccc(C(=O)O)c3C2=O)cc1 [2-(4-Methoxyphenyl)-3-oxo-1H-isoindole-4-carboxylic acid] | 1170 nM | 3.7 | 57.2% |  |
| Cc1ccc2c(c1)C1C=CCC1C(C(=O)O)N2 (centres unmarked) [8-methyl-3a,4,5,9b-tetrahydro-3H-cyclopenta[c]quinoline-4-carboxylic acid] | 410 nM | 2.41 | 102% |  |
| CCn1c(SC(C)C(=O)O)nc2c(c1=O)C1=C(CCC1)C2 (centres unmarked) | 1690 nM | 3.77 | 86% |  |
| Cn1nnnc1SCC1=C(C(=O)[O-])N2C(=O)[C@H](NC(=O)[C@H](O)c3ccccc3)[C@H]2SC1.[Na+] [Sodium (6R,7S)-7-[[(2R)-2-hydroxy-2-phenyl-acetyl]amino]-3-[(1-methyltetrazol-5-yl)sulfanylmethyl]-8-oxo-5-thia-1-azabicyclo[4.2.0]oct-2-ene-2-carboxylate] | 100 nM | 0.6 | 98% |  |
| Cc1c(N2C(=O)c3ccc4c5c(ccc(c35)C2=O)CC4)c(=O)n(-c2ccccc2)n1C [2-(1,5-Dimethyl-3-oxo-2-phenyl-2,3-dihydro-1H-pyrazol-4-yl)-6,7-dihydro-1H-indeno[6,7,1-def]isoquinoline-1,3(2H)-dione] | 1170 nM | 2.23 | 93.1% |  |
| N#Cc1c(N2CCCC2)nc(N)c2c(N)nc(N3CCCC3)cc12 [1,8-Diamino-3,6-dipyrrolidin-1-yl-2,7-naphthyridine-4-carbonitrile] | 6960 nM | 0.99 | 61.3% |  |
| O=C(O)c1cc(O)c2c(c1)C(=O)c1cccc(O)c1C2=O [4,5-Dihydroxy-9,10-dioxo-anthracene-2-carboxylic acid] | 19600 nM | 0.76 | 64.2% |  |
| COc1ccc(C(=O)c2no[n+]([O-])c2C(=O)c2ccc(OC)cc2)cc1 [[4-(4-Methoxybenzoyl)-2-oxido-1-oxa-5-aza-2-azoniacyclopenta-2,4-dien-3-yl]-(4-methoxyphenyl)methanone] | 11300 nM | 0.45 | 86.3% |  |
| O=C(O)C(O)c1ccco1 (centres unmarked) [2-(2-Furyl)-2-hydroxy-acetic acid] | 2300 nM | 1.79 | 100% |  |
| NC(=O)c1c(NC(=O)CSc2nnc(-c3ccco3)n2-c2ccccc2)sc2c1CCC2 [3-[[2-[[5-(2-furyl)-4-phenyl-1,2,4-triazol-3 - yl]sulfanyl]acetyl]amino]-4-thiabicyclo[3.3.0]octa-2,9-diene-2-carboxamide] | 10600 nM | 4.06 |  | 97.5% |
| CC1(C)CCCN(C(=O)c2coc(=O)c(Br)c2)C1 [3-bromo-5-(3,3-dimethylpiperidine-1-carbonyl)pyran-2-one] | 400 nM | 2.66 | 102% |  |
| CCn1c(SCC(=O)O)nc2c(c1=O)C1=C(CCC1)C2 | 1290 nM | 4.48 | 102% |  |
| O=C(O)C1Nc2c(O)cccc2C2C=CCC12 (centres unmarked) [6-hydroxy-3a,4,5,9b-tetrahydro-3H-cyclopenta[c]quinoline-4-carboxylic acid] | 200 nM | 2.11 | 103% |  |
| Cc1ccc(C)n1C(Cc1ccccc1)C(=O)O (centres unmarked) [2-(2,5-Dimethylpyrrol-1-yl)-3-phenyl-propanoic acid] | 420 nM |  | 102% |  |
| c1coc(-c2nc(-c3ccco3)c(-c3ccco3)nc2-c2ccco2)c1 [2,3,5,6-tetrakis(2-furyl)pyrazine] | 1140 nM | 2.26 | 74.1% |  |
| CSc1nc(N(CCO)CCO)c2sc3nc(-c4ccco4)c4c(c3c2n1)CCC4 | 410 nM | 2.28 | 62.5% |  |
| COc1ccc(Cn2c(C)nc3c(c2=O)c2nc4ccccc4nc2n3Cc2ccco2)cc1 | 6860 nM | 2.17 | 104% |  |
| O=C(NCc1ccco1)c1c2c(nc3ccccc13)CCC2 [N-(Furan-2-ylmethyl)-2,3-dihydro-1h-cyclopenta[b]quinoline-9-carboxamide;] | 4630 nM | 1.52 | 62% |  |
| COC(=O)c1ccccc1NC(=O)c1noc2ccccc12 [Methyl 2-(4-oxa-3-azabicyclo[3.3.0]octa-2,9-diene-2-carbonylamino)benzoate] | 2330 nM | 1.45 | 81.2% |  |
| O=C(O)CCC(=O)N1CCc2cc(S(=O)(=O)N3CCN(c4ccc(F)cc4)CC3)ccc21 [4-[5-[4-(4-Fluorophenyl)piperazin-1-yl]sulfonyl-2,3-dihydroindol-1-yl]-4-oxo-butanoic acid] | 3770 nM | 7.72 | 58.8% |  |
| Cc1cc(C(=O)O)ccc1-n1c(C)ccc1C [4-(2,5-Dimethylpyrrol-1-yl)-3-methyl-benzoic acid] | 700 nM | 2.09 | 103% |  |
| COc1ccc(Br)cc1C(=O)Nc1cccc(-c2nnc(-c3ccco3)o2)c1 [5-Bromo-N-[3-[5-(2-furyl)-1,3,4-oxadiazol-2-yl]phenyl]-2-methoxy-benzamide] | 4900 nM | 1.47 | 102% |  |
| CN(C)c1ccc(-c2nn3c(-c4ccc(Cl)cc4Cl)nnc3s2)cc1 [4-[2-(2,4-Dichlorophenyl)-6-thia-1,3,4,8-tetrazabicyclo[3.3.0]octa-2,4,7-trien-7-yl]-N,N-dimethyl-aniline] | 78400 nM | 2.71 | 64.3% |  |
| Cc1cc(NC(=O)Cc2cccs2)no1 [N-(5-methyl-1,2-oxazol-3-yl)-2-thiophen-2-ylacetamide] | 700 nM | 2.49 | 99.7% |  |
| Cc1cccc(Nc2nn3c(=O)c4ccccc4nc3s2)c1 [2-(3-Methylphenylamino)-5H-[1,3,4]thiadiazolo[2,3-b]quinazolin-5-one] | 2740 nM | 1.32 | 53.9% |  |
| COc1cccc2c1NC(C(=O)O)C1CC=CC21 (centres unmarked) [6-methoxy-3a,4,5,9b-tetrahydro-3H-cyclopenta[c]quinoline-4-carboxylic acid] | 1280 nM | 1.54 | 103% |  |
| COc1ccc(Cc2nnc(NC(=O)Cc3cccs3)s2)cc1 [N-{5-[(4-methoxyphenyl)methyl]-1,3,4-thiadiazol-2-yl}-2-thiophen-2-ylacetamide] | 4020 nM | 2.33 | 103% |  |
